Experimental data: ChEMBL document CHEMBL1759950, “Design, synthesis and cytotoxic activities of novel β-amino alcohol derivatives” (Bioorg Med Chem Lett, 2011)

The molecules below were run on SMMC-7721 (assay: Cytotoxicity against human SMMC7721 cells by MTT assay).
Type: functional, cell-based

Compound | IC50 [µM]
CCCC(O)(CCC)[C@H](Cc1cn(CC)c2ccccc12)NCc1c2ccccc2cc2ccccc12 | > 40
CCCCC(O)(CCCC)[C@H](Cc1cn(C)c2ccccc12)NCc1c2ccccc2cc2ccccc12 | > 40
OC[C@H](Cc1c[nH]c2ccccc12)NCc1c2ccccc2cc2ccccc12 | > 40
Cn1cc(C[C@H](NCc2c3ccccc3cc3ccccc23)C(C)(C)O)c2ccccc21 | 15.5
CCCC(O)(CCC)[C@H](Cc1c[nH]c2ccccc12)NCc1c2ccccc2cc2ccccc12 | 17.3
CCCC(O)(CCC)[C@H](Cc1cn(C)c2ccccc12)NCc1c2ccccc2cc2ccccc12 | > 40
CC(C)(O)[C@H](Cc1c[nH]c2ccccc12)NCc1c2ccccc2cc2ccccc12 | 13.4
CCn1cc(C[C@@H](CO)NCc2c3ccccc3cc3ccccc23)c2ccccc21 | 17.1
Cn1cc(C[C@@H](CO)NCc2c3ccccc3cc3ccccc23)c2ccccc21 | 15
O=C(c1ccccc1)N(Cc1c2ccccc2cc2ccccc12)[C@H](CO)Cc1c[nH]c2ccccc12 | 20.7
CCn1cc(C[C@H](NCc2c3ccccc3cc3ccccc23)C(C)(C)O)c2ccccc21 | 13.6
CCC(O)(CC)[C@H](Cc1cn(C)c2ccccc12)NCc1c2ccccc2cc2ccccc12 | > 40
CCC(O)(CC)[C@H](Cc1c[nH]c2ccccc12)NCc1c2ccccc2cc2ccccc12 | 13
CCn1cc(C[C@H](NCc2c3ccccc3cc3ccccc23)C(O)(CC)CC)c2ccccc21 | > 40
CC(=O)N(Cc1c2ccccc2cc2ccccc12)[C@H](CO)Cc1c[nH]c2ccccc12 | 14.1
CCCCC(O)(CCCC)[C@H](Cc1c[nH]c2ccccc12)NCc1c2ccccc2cc2ccccc12 | > 40
CC(C)(O)[C@H](Cc1c[nH]c2ccccc12)N(Cc1c2ccccc2cc2ccccc12)C(=O)c1ccccc1 | > 40
CCCCC(O)(CCCC)[C@H](Cc1cn(CC)c2ccccc12)NCc1c2ccccc2cc2ccccc12 | > 40
CC(=O)N(Cc1c2ccccc2cc2ccccc12)[C@@H](Cc1c[nH]c2ccccc12)C(C)(C)O | 12

Each molecule was assayed on HL-60 (assay: Cytotoxicity against human HL60 cells by MTT assay).
Type: functional, cell-based

Compound | IC50 [µM]
CCCC(O)(CCC)[C@H](Cc1cn(CC)c2ccccc12)NCc1c2ccccc2cc2ccccc12 | > 40
CCCCC(O)(CCCC)[C@H](Cc1cn(C)c2ccccc12)NCc1c2ccccc2cc2ccccc12 | > 40
OC[C@H](Cc1c[nH]c2ccccc12)NCc1c2ccccc2cc2ccccc12 | > 40
Cn1cc(C[C@H](NCc2c3ccccc3cc3ccccc23)C(C)(C)O)c2ccccc21 | 4.78
CCCC(O)(CCC)[C@H](Cc1c[nH]c2ccccc12)NCc1c2ccccc2cc2ccccc12 | 13.2
CCCC(O)(CCC)[C@H](Cc1cn(C)c2ccccc12)NCc1c2ccccc2cc2ccccc12 | > 40
CC(C)(O)[C@H](Cc1c[nH]c2ccccc12)NCc1c2ccccc2cc2ccccc12 | 9.55
CCn1cc(C[C@@H](CO)NCc2c3ccccc3cc3ccccc23)c2ccccc21 | 6.18
Cn1cc(C[C@@H](CO)NCc2c3ccccc3cc3ccccc23)c2ccccc21 | 4.48
O=C(c1ccccc1)N(Cc1c2ccccc2cc2ccccc12)[C@H](CO)Cc1c[nH]c2ccccc12 | 7.03
CCn1cc(C[C@H](NCc2c3ccccc3cc3ccccc23)C(C)(C)O)c2ccccc21 | 5.44
CCC(O)(CC)[C@H](Cc1cn(C)c2ccccc12)NCc1c2ccccc2cc2ccccc12 | > 40
CCC(O)(CC)[C@H](Cc1c[nH]c2ccccc12)NCc1c2ccccc2cc2ccccc12 | 12.2
CCn1cc(C[C@H](NCc2c3ccccc3cc3ccccc23)C(O)(CC)CC)c2ccccc21 | > 40
CC(=O)N(Cc1c2ccccc2cc2ccccc12)[C@H](CO)Cc1c[nH]c2ccccc12 | 3.64
CCCCC(O)(CCCC)[C@H](Cc1c[nH]c2ccccc12)NCc1c2ccccc2cc2ccccc12 | > 40
CC(C)(O)[C@H](Cc1c[nH]c2ccccc12)N(Cc1c2ccccc2cc2ccccc12)C(=O)c1ccccc1 | > 40
CCCCC(O)(CCCC)[C@H](Cc1cn(CC)c2ccccc12)NCc1c2ccccc2cc2ccccc12 | > 40
CC(=O)N(Cc1c2ccccc2cc2ccccc12)[C@@H](Cc1c[nH]c2ccccc12)C(C)(C)O | 6.49

These molecules were tested on A549 (assay: Cytotoxicity against human A549 cells by MTT assay).
Type: functional, cell-based

Compound | IC50 [µM]
CCCC(O)(CCC)[C@H](Cc1cn(CC)c2ccccc12)NCc1c2ccccc2cc2ccccc12 | > 40
CCCCC(O)(CCCC)[C@H](Cc1cn(C)c2ccccc12)NCc1c2ccccc2cc2ccccc12 | > 40
OC[C@H](Cc1c[nH]c2ccccc12)NCc1c2ccccc2cc2ccccc12 | > 40
Cn1cc(C[C@H](NCc2c3ccccc3cc3ccccc23)C(C)(C)O)c2ccccc21 | 11.8
CCCC(O)(CCC)[C@H](Cc1c[nH]c2ccccc12)NCc1c2ccccc2cc2ccccc12 | 10.9
CCCC(O)(CCC)[C@H](Cc1cn(C)c2ccccc12)NCc1c2ccccc2cc2ccccc12 | > 40
CC(C)(O)[C@H](Cc1c[nH]c2ccccc12)NCc1c2ccccc2cc2ccccc12 | 11
CCn1cc(C[C@@H](CO)NCc2c3ccccc3cc3ccccc23)c2ccccc21 | 16.5
Cn1cc(C[C@@H](CO)NCc2c3ccccc3cc3ccccc23)c2ccccc21 | 16.5
O=C(c1ccccc1)N(Cc1c2ccccc2cc2ccccc12)[C@H](CO)Cc1c[nH]c2ccccc12 | 13.2
CCn1cc(C[C@H](NCc2c3ccccc3cc3ccccc23)C(C)(C)O)c2ccccc21 | 15
CCC(O)(CC)[C@H](Cc1cn(C)c2ccccc12)NCc1c2ccccc2cc2ccccc12 | > 40
CCC(O)(CC)[C@H](Cc1c[nH]c2ccccc12)NCc1c2ccccc2cc2ccccc12 | 11.6
CCn1cc(C[C@H](NCc2c3ccccc3cc3ccccc23)C(O)(CC)CC)c2ccccc21 | > 40
CC(=O)N(Cc1c2ccccc2cc2ccccc12)[C@H](CO)Cc1c[nH]c2ccccc12 | 15.2
CCCCC(O)(CCCC)[C@H](Cc1c[nH]c2ccccc12)NCc1c2ccccc2cc2ccccc12 | > 40
CC(C)(O)[C@H](Cc1c[nH]c2ccccc12)N(Cc1c2ccccc2cc2ccccc12)C(=O)c1ccccc1 | > 40
CCCCC(O)(CCCC)[C@H](Cc1cn(CC)c2ccccc12)NCc1c2ccccc2cc2ccccc12 | > 40
CC(=O)N(Cc1c2ccccc2cc2ccccc12)[C@@H](Cc1c[nH]c2ccccc12)C(C)(C)O | 14.5

What follows are molecules tested on MCF7 (assay: Cytotoxicity against human MCF7 cells by MTT assay).
Type: functional, cell-based

Compound | IC50 [µM]
CCCC(O)(CCC)[C@H](Cc1cn(CC)c2ccccc12)NCc1c2ccccc2cc2ccccc12 | > 40
CCCCC(O)(CCCC)[C@H](Cc1cn(C)c2ccccc12)NCc1c2ccccc2cc2ccccc12 | > 40
OC[C@H](Cc1c[nH]c2ccccc12)NCc1c2ccccc2cc2ccccc12 | > 40
Cn1cc(C[C@H](NCc2c3ccccc3cc3ccccc23)C(C)(C)O)c2ccccc21 | 15.2
CCCC(O)(CCC)[C@H](Cc1c[nH]c2ccccc12)NCc1c2ccccc2cc2ccccc12 | 23.9
CCCC(O)(CCC)[C@H](Cc1cn(C)c2ccccc12)NCc1c2ccccc2cc2ccccc12 | > 40
CC(C)(O)[C@H](Cc1c[nH]c2ccccc12)NCc1c2ccccc2cc2ccccc12 | 12.5
CCn1cc(C[C@@H](CO)NCc2c3ccccc3cc3ccccc23)c2ccccc21 | 14.9
Cn1cc(C[C@@H](CO)NCc2c3ccccc3cc3ccccc23)c2ccccc21 | 16.6
O=C(c1ccccc1)N(Cc1c2ccccc2cc2ccccc12)[C@H](CO)Cc1c[nH]c2ccccc12 | 17.4
CCn1cc(C[C@H](NCc2c3ccccc3cc3ccccc23)C(C)(C)O)c2ccccc21 | 13.9
CCC(O)(CC)[C@H](Cc1cn(C)c2ccccc12)NCc1c2ccccc2cc2ccccc12 | > 40
CCC(O)(CC)[C@H](Cc1c[nH]c2ccccc12)NCc1c2ccccc2cc2ccccc12 | 24.3
CCn1cc(C[C@H](NCc2c3ccccc3cc3ccccc23)C(O)(CC)CC)c2ccccc21 | > 40
CC(=O)N(Cc1c2ccccc2cc2ccccc12)[C@H](CO)Cc1c[nH]c2ccccc12 | 16.1
CCCCC(O)(CCCC)[C@H](Cc1c[nH]c2ccccc12)NCc1c2ccccc2cc2ccccc12 | > 40
CC(C)(O)[C@H](Cc1c[nH]c2ccccc12)N(Cc1c2ccccc2cc2ccccc12)C(=O)c1ccccc1 | > 40
CCCCC(O)(CCCC)[C@H](Cc1cn(CC)c2ccccc12)NCc1c2ccccc2cc2ccccc12 | > 40
CC(=O)N(Cc1c2ccccc2cc2ccccc12)[C@@H](Cc1c[nH]c2ccccc12)C(C)(C)O | 15.6

What follows are molecules tested on SW480 (assay: Cytotoxicity against human SW480 cells by MTT assay).
Type: functional, cell-based

Compound | IC50 [µM]
CCCC(O)(CCC)[C@H](Cc1cn(CC)c2ccccc12)NCc1c2ccccc2cc2ccccc12 | > 40
CCCCC(O)(CCCC)[C@H](Cc1cn(C)c2ccccc12)NCc1c2ccccc2cc2ccccc12 | > 40
OC[C@H](Cc1c[nH]c2ccccc12)NCc1c2ccccc2cc2ccccc12 | > 40
Cn1cc(C[C@H](NCc2c3ccccc3cc3ccccc23)C(C)(C)O)c2ccccc21 | 15.1
CCCC(O)(CCC)[C@H](Cc1c[nH]c2ccccc12)NCc1c2ccccc2cc2ccccc12 | > 40
CCCC(O)(CCC)[C@H](Cc1cn(C)c2ccccc12)NCc1c2ccccc2cc2ccccc12 | > 40
CC(C)(O)[C@H](Cc1c[nH]c2ccccc12)NCc1c2ccccc2cc2ccccc12 | 11.7
CCn1cc(C[C@@H](CO)NCc2c3ccccc3cc3ccccc23)c2ccccc21 | 17.4
Cn1cc(C[C@@H](CO)NCc2c3ccccc3cc3ccccc23)c2ccccc21 | 13.5
O=C(c1ccccc1)N(Cc1c2ccccc2cc2ccccc12)[C@H](CO)Cc1c[nH]c2ccccc12 | 30.7
CCn1cc(C[C@H](NCc2c3ccccc3cc3ccccc23)C(C)(C)O)c2ccccc21 | 17.6
CCC(O)(CC)[C@H](Cc1cn(C)c2ccccc12)NCc1c2ccccc2cc2ccccc12 | > 40
CCC(O)(CC)[C@H](Cc1c[nH]c2ccccc12)NCc1c2ccccc2cc2ccccc12 | > 40
CCn1cc(C[C@H](NCc2c3ccccc3cc3ccccc23)C(O)(CC)CC)c2ccccc21 | > 40
CC(=O)N(Cc1c2ccccc2cc2ccccc12)[C@H](CO)Cc1c[nH]c2ccccc12 | 17.3
CCCCC(O)(CCCC)[C@H](Cc1c[nH]c2ccccc12)NCc1c2ccccc2cc2ccccc12 | > 40
CC(C)(O)[C@H](Cc1c[nH]c2ccccc12)N(Cc1c2ccccc2cc2ccccc12)C(=O)c1ccccc1 | > 40
CCCCC(O)(CCCC)[C@H](Cc1cn(CC)c2ccccc12)NCc1c2ccccc2cc2ccccc12 | > 40
CC(=O)N(Cc1c2ccccc2cc2ccccc12)[C@@H](Cc1c[nH]c2ccccc12)C(C)(C)O | 17.2
